Read-outs that look alike come from different tables or passages of the source.
How the values were obtained:
ABUTH = test: Pre-emergence herbicidal action against harmful plants; format: in vivo, Abutilon theophrasti; settings: scored visually after 3 weeks
Description: (§1) 1. Pre-Emergence Herbicidal Action Against Harmful Plants
(§2) Seeds of monocotyledonous and dicotyledonous weed plants and crop plants are laid out in wood-fiber pots in sandy loam and covered with soil. […] The comparative tests were conducted by way of example on some weed plants and crop plants.

CYPES = test: as above; format: in vivo; settings: scored visually after 3 weeks
Description: as §1, §2

ALOMY [1] = test: as above; format: in vivo; settings: scored visually after 3 weeks
Description: as §1, §2

STEME = test: as above; format: in vivo, Stellaria media; settings: dosage 20 g/ha, scored visually after 3 weeks
Excerpt: as §1

ZEAMX [2] = test: Post-emergence damage to crop plants; format: in vivo; settings: dosage 5 g/ha, assessed visually after about 3 weeks
Description: (§3) 2. Post-Emergence Herbicidal Action Against Harmful Plants
(§4) Seeds of monocotyledonous and dicotyledonous weed and crop plants are laid out in sandy loam in wood-fiber pots, covered with soil and cultivated in a greenhouse under good growth conditions. 2 to 3 weeks after sowing, the test plants are treated at the one-leaf stage.

AMARE = test: Post-emergence herbicidal action against harmful plants; format: in vivo, Amaranthus retroflexus; settings: dosage 5 g/ha, assessed visually after about 3 weeks
Description: as §3, §4

VERPE = test: as above; format: in vivo; settings: dosage 5 g/ha, assessed visually after about 3 weeks
Description: as §3, §4

ALOMY [3] = test: as above; format: in vivo; settings: dosage 5 g/ha, assessed visually after about 3 weeks
Description: as §3, §4

TRZAS = test: Pre-emergence damage to crop plants; format: in vivo; settings: dosage 20 g/ha, scored visually after 3 weeks
Excerpt: as §1

ZEAMX [4] = settings: pre-emergence, scored visually after 3 weeks
Description: as §1, §2

[5] = dosage 20 g/ha, 100% = plants have died, 0% = like control plants

## Cc1nnc(NC(=O)c2ccc(C(F)(F)F)c(S(C)(=O)=O)c2C)o1 [drawing 30]
ABUTH; [5]
  Activity against ABUTH: 70%
CYPES; dosage 20 g/ha
  Activity against CYPES: 40%
ALOMY [1]; dosage 20 g/ha
  Activity against ALOMY: 20%

## Cc1nnc(NC(=O)c2ccc(C(F)(F)F)c(S(C)(=O)=O)c2C)o1 [drawing 12, reference compound]
STEME
  Activity against STEME: 70%

## Cc1nnc([N-]C(=O)c2ccc(C(F)(F)F)c(S(C)(=O)=O)c2C)o1.[Na+] [drawing 39]
ZEAMX [2]
  Damage to ZEAMX: 0%
AMARE
  Activity against AMARE: 100%

## Cc1nnc(NC(=O)c2ccc(C(F)(F)F)c([S+](C)[O-])c2Cl)o1 (stereo not shown) [drawing 57]
VERPE
  Activity against VERPE: 80%

## Cc1nnc(NC(=O)c2ccc(C(F)(F)F)c(S(C)(=O)=O)c2C)o1 [drawing 22]
ABUTH; [5]
  Activity against ABUTH: 70%

## Cc1nnc(NC(=O)c2ccc(C(F)(F)F)c(S(C)(=O)=O)c2C)o1 [drawing 13]
ABUTH; [5]
  Activity against ABUTH: 100%

## Cc1nnc(NC(=O)c2ccc(C(F)(F)F)c([S+](C)[O-])c2Cl)o1 (stereo not shown) [drawing 32]
ABUTH; [5]
  Activity against ABUTH: 60%
CYPES; dosage 20 g/ha
  Activity against CYPES: 60%
ALOMY [1]; dosage 20 g/ha
  Activity against ALOMY: 20%

## Cc1nnc(NC(=O)c2ccc(C(F)(F)F)c(S(C)(=O)=O)c2C)o1 [drawing 49]
AMARE
  Activity against AMARE: 60%

## Cc1nnc(NC(=O)c2ccc(C(F)(F)F)c(S(C)(=O)=O)c2C)o1 [drawing 44, reference compound]
AMARE
  Activity against AMARE: 80%

## Cc1nnc(NC(=O)c2ccc(C(F)(F)F)c(S(C)(=O)=O)c2C)o1 [drawing 26]
ABUTH; [5]
  Activity against ABUTH: 70%
CYPES; dosage 20 g/ha
  Activity against CYPES: 40%
ALOMY [1]; dosage 20 g/ha
  Activity against ALOMY: 20%

## Cc1nnc(NC(=O)c2ccc(C(F)(F)F)c(S(C)(=O)=O)c2C)o1 [drawing 19]
ABUTH; [5]
  Activity against ABUTH: 100%

## Cc1nnc(NC(=O)c2ccc(C(F)(F)F)c(S(C)(=O)=O)c2C)o1 [drawing 50, reference compound]
AMARE
  Activity against AMARE: 40%

## Cc1nnc(NC(=O)c2ccc(C(F)(F)F)c(S(C)(=O)=O)c2C)o1 [drawing 15]
ABUTH; [5]
  Activity against ABUTH: 100%

## Cc1nnc(NC(=O)c2ccc(C(F)(F)F)c(S(C)(=O)=O)c2C)o1 [drawing 54, reference compound]
ALOMY [3]
  Activity against ALOMY: 60%
VERPE
  Activity against VERPE: 60%

## Cc1nnc(NC(=O)c2ccc(C(F)(F)F)c(S(C)(=O)=O)c2C)o1 [drawing 28]
ABUTH; [5]
  Activity against ABUTH: 70%
CYPES; dosage 20 g/ha
  Activity against CYPES: 40%
ALOMY [1]; dosage 20 g/ha
  Activity against ALOMY: 20%

## Cc1nnc([N-]C(=O)c2ccc(C(F)(F)F)c(S(C)(=O)=O)c2C)o1.[K+] [drawing 9]
STEME
  Activity against STEME: 90%
TRZAS
  Damage to TRZAS: 0%

## Cc1nnc(NC(=O)c2ccc(C(F)(F)F)c(S(C)(=O)=O)c2C)o1 [drawing 29]
ABUTH; [5]
  Activity against ABUTH: 100%
CYPES; dosage 20 g/ha
  Activity against CYPES: 70%
ALOMY [1]; dosage 20 g/ha
  Activity against ALOMY: 10%

## Cc1nnc(NC(=O)c2ccc(C(F)(F)F)c(S(C)(=O)=O)c2C)o1 [drawing 45]
AMARE
  Activity against AMARE: 100%

## Cc1nnc(NC(=O)c2ccc(C(F)(F)F)c([S+](C)[O-])c2Cl)o1 (stereo not shown) [drawing 33]
ALOMY [1]; dosage 20 g/ha
  Activity against ALOMY: 60%

## Cc1nnc(NC(=O)c2ccc(C(F)(F)F)c(S(C)(=O)=O)c2C)o1 [drawing 43]
AMARE
  Activity against AMARE: 100%

## Cc1nnc(NC(=O)c2ccc(C(F)(F)F)c(S(C)(=O)=O)c2C)o1 [drawing 21]
ABUTH; [5]
  Activity against ABUTH: 100%

## Cc1nnc(NC(=O)c2ccc(C(F)(F)F)c(S(C)(=O)=O)c2C)o1 [drawing 20]
ABUTH; [5]
  Activity against ABUTH: 70%

## Cc1nnc(NC(=O)c2ccc(C(F)(F)F)c(S(C)(=O)=O)c2C)o1 [drawing 16]
ABUTH; [5]
  Activity against ABUTH: 70%

## CCc1nnc(NC(=O)c2ccc(S(=O)(=O)CC)c(C3=NOC(COC)C3)c2Cl)o1 (stereo not shown) [drawing 36]
ABUTH; dosage 320 g/ha
  Activity against ABUTH: 90%
CYPES; dosage 320 g/ha
  Activity against CYPES: 80%
ALOMY [1]; dosage 320 g/ha
  Activity against ALOMY: 10%

## Cc1nnc([N-]C(=O)c2ccc(C(F)(F)F)c(S(C)(=O)=O)c2C)o1.[Na+] [drawing 25]
ZEAMX [4]; dosage 20 g/ha
  Damage to ZEAMX: 0%
CYPES; dosage 20 g/ha
  Activity against CYPES: 40%
ALOMY [1]; dosage 20 g/ha
  Activity against ALOMY: 60%

## Cc1nnc(NC(=O)c2ccc(C(F)(F)F)c(S(C)(=O)=O)c2C)o1 [drawing 40, reference compound]
AMARE
  Activity against AMARE: 80%

## Cc1nnc(NC(=O)c2ccc(C(F)(F)F)c(S(C)(=O)=O)c2C)o1 [drawing 23]
ABUTH; [5]
  Activity against ABUTH: 100%
CYPES; dosage 20 g/ha
  Activity against CYPES: 70%
ALOMY [1]; dosage 20 g/ha
  Activity against ALOMY: 70%

## CCc1nnc(NC(=O)c2ccc(S(=O)(=O)CC)c(C3=NOC(COC)C3)c2Cl)o1 (stereo not shown) [drawing 37]
ZEAMX [4]; dosage 320 g/ha
  Damage to ZEAMX: 10%
ABUTH; dosage 320 g/ha
  Activity against ABUTH: 80%
CYPES; dosage 320 g/ha
  Activity against CYPES: 100%
ALOMY [1]; dosage 320 g/ha
  Activity against ALOMY: 20%

## Cc1nnc(NC(=O)c2ccc(C(F)(F)F)c(S(C)(=O)=O)c2C)o1 [drawing 48, reference compound]
AMARE
  Activity against AMARE: 40%

## Cc1nnc(NC(=O)c2ccc(C(F)(F)F)c(S(C)(=O)=O)c2C)o1 [drawing 42, reference compound]
AMARE
  Activity against AMARE: 80%

## Cc1nnc(NC(=O)c2ccc(C(F)(F)F)c(S(C)(=O)=O)c2C)o1 [drawing 8]
ABUTH; [5]
  Activity against ABUTH: 70%

## Cc1nnc(NC(=O)c2ccc(C(F)(F)F)c(S(C)(=O)=O)c2C)o1 [drawing 52, reference compound]
ALOMY [3]
  Activity against ALOMY: 60%
VERPE
  Activity against VERPE: 60%

## Cc1nnc(NC(=O)c2ccc(C(F)(F)F)c(S(C)(=O)=O)c2C)o1 [drawing 18]
ABUTH; [5]
  Activity against ABUTH: 70%

## Cc1nnc(NC(=O)c2ccc(C(F)(F)F)c([S+](C)[O-])c2C)o1 (stereo not shown) [drawing 56, reference compound]
ALOMY [3]
  Activity against ALOMY: 60%
VERPE
  Activity against VERPE: 50%

## Cc1nnc([N-]C(=O)c2ccc(C(F)(F)F)c(S(C)(=O)=O)c2C)o1.[Na+] [drawing 7]
ABUTH; [5]
  Activity against ABUTH: 100%
TRZAS
  Damage to TRZAS: 0%

## Cc1nnc(NC(=O)c2ccc(C(F)(F)F)c([S+](C)[O-])c2Cl)o1 (stereo not shown) [drawing 34]
ABUTH; [5]
  Activity against ABUTH: 60%
CYPES; dosage 20 g/ha
  Activity against CYPES: 60%
ALOMY [1]; dosage 20 g/ha
  Activity against ALOMY: 20%

## Cc1nnc(NC(=O)c2ccc(C(F)(F)F)c([S+](C)[O-])c2C)o1 (stereo not shown) [drawing 58, reference compound]
ALOMY [3]
  Activity against ALOMY: 60%
VERPE
  Activity against VERPE: 50%

## Cc1nnc(NC(=O)c2ccc(C(F)(F)F)c(S(C)(=O)=O)c2C)o1 [drawing 27]
ABUTH; [5]
  Activity against ABUTH: 100%
CYPES; dosage 20 g/ha
  Activity against CYPES: 60%
ALOMY [1]; dosage 20 g/ha
  Activity against ALOMY: 60%

## Cc1nnc(NC(=O)c2ccc(C(F)(F)F)c(S(C)(=O)=O)c2C)o1 [drawing 14]
ABUTH; [5]
  Activity against ABUTH: 70%

## Cc1nnc(NC(=O)c2ccc(C(F)(F)F)c(S(C)(=O)=O)c2C)o1 [drawing 41]
AMARE
  Activity against AMARE: 100%

## Cc1nnc(NC(=O)c2ccc(C(F)(F)F)c(S(C)(=O)=O)c2C)o1 [drawing 10, reference compound]
STEME
  Activity against STEME: 70%

## CCc1nnc([N-]C(=O)c2ccc(S(=O)(=O)CC)c(C3=NOC(COC)C3)c2Cl)o1.[Na+] (stereo not shown)
ZEAMX [4]; dosage 320 g/ha
  Damage to ZEAMX: 0%
ABUTH; dosage 320 g/ha
  Activity against ABUTH: 90%
CYPES; dosage 320 g/ha
  Activity against CYPES: 80%
ALOMY [1]; dosage 320 g/ha
  Activity against ALOMY: 30%

## Cc1nnc(NC(=O)c2ccc(C(F)(F)F)c(S(C)(=O)=O)c2C)o1 [drawing 53]
ALOMY [3]
  Activity against ALOMY: 80%
VERPE
  Activity against VERPE: 90%

## Cc1nnc(NC(=O)c2ccc(C(F)(F)F)c(S(C)(=O)=O)c2C)o1 [drawing 24]
ABUTH; [5]
  Activity against ABUTH: 70%
CYPES; dosage 20 g/ha
  Activity against CYPES: 40%
ALOMY [1]; dosage 20 g/ha
  Activity against ALOMY: 20%

## Cc1nnc(NC(=O)c2ccc(C(F)(F)F)c(S(C)(=O)=O)c2C)o1 [drawing 11]
STEME
  Activity against STEME: 90%

## Cc1nnc(NC(=O)c2ccc(C(F)(F)F)c(S(C)(=O)=O)c2C)o1 [drawing 46, reference compound]
AMARE
  Activity against AMARE: 80%

## CCc1nnc(NC(=O)c2ccc(S(=O)(=O)CC)c(C3=NOC(COC)C3)c2Cl)o1 (stereo not shown) [drawing 38]
ABUTH; dosage 320 g/ha
  Activity against ABUTH: 10%
CYPES; dosage 320 g/ha
  Activity against CYPES: 80%
ALOMY [1]; dosage 320 g/ha
  Activity against ALOMY: 10%

## Cc1nnc([N-]C(=O)c2ccc(C(F)(F)F)c(S(C)(=O)=O)c2C)o1.[K+] [drawing 47]
ZEAMX [2]
  Damage to ZEAMX: 0%
AMARE
  Activity against AMARE: 60%

## Cc1nnc(NC(=O)c2ccc(C(F)(F)F)c(S(C)(=O)=O)c2C)o1 [drawing 17]
ABUTH; [5]
  Activity against ABUTH: 100%

— US10433553B2, “Salts of N-(1,3,4-oxadiazol-2-yl) aryl carboxylic acid amides and the use of same as herbicides” (BAYER CROPSCIENCE AKTIENGESELLSCHAFT, priority 2015, dated 2019)
